In ChEMBL document CHEMBL4804284:

Assays:
Design in all cases: scale not given: the % may be the effect or the level left
[1] = molecular target: G protein-coupled receptor kinase 4 (Homo sapiens) (UniProt P32298); assay: Inhibition of DNA-tagged human GRK4 assessed as percent of control at 50000 nM by qPCR analysis relative to control
[2] = molecular target: Serine/threonine-protein kinase/endoribonuclease IRE1 (Homo sapiens) (UniProt O75460); assay: Inhibition of DNA-tagged human ERN1 assessed as percent of control at 50000 nM by qPCR analysis relative to control
[3] = molecular target: Serine/threonine-protein kinase MARK1 (Homo sapiens) (UniProt Q9P0L2); assay: Inhibition of DNA-tagged human MARK1 assessed as percent of control at 50000 nM by qPCR analysis relative to control
[4] = molecular target: Mitogen-activated protein kinase kinase kinase 11 (Homo sapiens) (UniProt Q16584); assay: Inhibition of DNA-tagged human MLK3 assessed as percent of control at 50000 nM by qPCR analysis relative to control
[5] = molecular target: RAF proto-oncogene serine/threonine-protein kinase (Homo sapiens) (UniProt P04049); assay: Inhibition of DNA-tagged human RAF1 assessed as percent of control at 50000 nM by qPCR analysis relative to control
[6] = molecular target: Dual specificity tyrosine-phosphorylation-regulated kinase 1A (Homo sapiens) (UniProt Q13627); assay: Inhibition of DNA-tagged human DYRK1A assessed as percent of control at 50000 nM by qPCR analysis relative to control
[7] = molecular target: Tyrosine-protein kinase Yes (Homo sapiens) (UniProt P07947); assay: Inhibition of DNA-tagged human YES assessed as percent of control at 50000 nM by qPCR analysis relative to control
[8] = molecular target: Ephrin type-A receptor 6 (Homo sapiens) (UniProt Q9UF33); assay: Inhibition of DNA-tagged human EPHA6 assessed as percent of control at 50000 nM by qPCR analysis relative to control
[9] = test system: Receptor-type tyrosine-protein kinase FLT3 (Homo sapiens), P36888 [N841I]; assay: Inhibition of DNA-tagged human FLT3 N841I mutant assessed as percent of control at 50000 nM by qPCR analysis relative to control
[10] = molecular target: Calcium/calmodulin-dependent protein kinase kinase 1 (Homo sapiens) (UniProt Q8N5S9); assay: Inhibition of DNA-tagged human CAMKK1 assessed as percent of control at 50000 nM by qPCR analysis relative to control
[11] = molecular target: Calcium/calmodulin-dependent protein kinase type 1G (Homo sapiens) (UniProt Q96NX5); assay: Inhibition of DNA-tagged human CAMK1G assessed as percent of control at 50000 nM by qPCR analysis relative to control
[12] = molecular target: Serine/threonine-protein kinase PRP4 homolog (Homo sapiens) (UniProt Q13523); assay: Inhibition of DNA-tagged human PRP4 assessed as percent of control at 50000 nM by qPCR analysis relative to control
[13] = molecular target: Receptor-interacting serine/threonine-protein kinase 1 (Homo sapiens) (UniProt Q13546); assay: Inhibition of DNA-tagged human RIPK1 assessed as percent of control at 50000 nM by qPCR analysis relative to control
[14] = molecular target: Cyclin-dependent kinase 2 (Homo sapiens) (UniProt P24941); assay: Inhibition of DNA-tagged human CDK2 assessed as percent of control at 50000 nM by qPCR analysis relative to control
[15] = molecular target: Protein kinase C iota type (Homo sapiens) (UniProt P41743); assay: Inhibition of DNA-tagged human PRKCI assessed as percent of control at 50000 nM by qPCR analysis relative to control
[16] = molecular target: Calcium/calmodulin-dependent protein kinase type II subunit delta (Homo sapiens) (UniProt Q13557); assay: Inhibition of DNA-tagged human CAMK2D assessed as percent of control at 50000 nM by qPCR analysis relative to control
[17] = molecular target: RAC-gamma serine/threonine-protein kinase (Homo sapiens) (UniProt Q9Y243); assay: Inhibition of DNA-tagged human AKT3 assessed as percent of control at 50000 nM by qPCR analysis relative to control
[18] = molecular target: Microtubule-associated serine/threonine-protein kinase 1 (Homo sapiens) (UniProt Q9Y2H9); assay: Inhibition of DNA-tagged human MAST1 assessed as percent of control at 50000 nM by qPCR analysis relative to control
[19] = molecular target: Tyrosine-protein kinase ABL1 (Homo sapiens) (UniProt P00519); assay: Inhibition of DNA-tagged non-phosphorylated human ABL1 assessed as percent of control at 50000 nM by qPCR analysis relative to control
[20] = molecular target: Mitogen-activated protein kinase 13 (Homo sapiens) (UniProt O15264); assay: Inhibition of DNA-tagged human p38-delta assessed as percent of control at 50000 nM by qPCR analysis relative to control
[21] = molecular target: Serine/threonine-protein kinase TAO2 (Homo sapiens) (UniProt Q9UL54); assay: Inhibition of DNA-tagged human TAOK2 assessed as percent of control at 50000 nM by qPCR analysis relative to control
[22] = molecular target: Serine/threonine-protein kinase PLK2 (Homo sapiens) (UniProt Q9NYY3); assay: Inhibition of DNA-tagged human PLK2 assessed as percent of control at 50000 nM by qPCR analysis relative to control
[23] = molecular target: Serine/threonine-protein kinase 3 (Homo sapiens) (UniProt Q13188); assay: Inhibition of DNA-tagged human MST2 assessed as percent of control at 50000 nM by qPCR analysis relative to control
[24] = molecular target: Activated CDC42 kinase 1 (Homo sapiens) (UniProt Q07912); assay: Inhibition of DNA-tagged human TNK2 assessed as percent of control at 50000 nM by qPCR analysis relative to control
[25] = test system: Mast/stem cell growth factor receptor Kit (Homo sapiens), P10721 [V559D]; assay: Inhibition of DNA-tagged human KIT V559D mutant assessed as percent of control at 50000 nM by qPCR analysis relative to control
[26] = test system: Tyrosine-protein kinase ABL1 (Homo sapiens), P00519 [T315I]; assay: Inhibition of DNA-tagged non-phosphorylated human ABL1 T315I mutant assessed as percent of control at 50000 nM by qPCR analysis relative to control
[27] = molecular target: Serine/threonine-protein kinase 25 (Homo sapiens) (UniProt O00506); assay: Inhibition of DNA-tagged human YSK1 assessed as percent of control at 50000 nM by qPCR analysis relative to control
[28] = molecular target: Dual serine/threonine and tyrosine protein kinase (Homo sapiens) (UniProt Q6XUX3); assay: Inhibition of DNA-tagged human RIPK5 assessed as percent of control at 50000 nM by qPCR analysis relative to control
[29] = molecular target: Rhodopsin kinase GRK7 (Homo sapiens) (UniProt Q8WTQ7); assay: Inhibition of DNA-tagged human GRK7 assessed as percent of control at 50000 nM by qPCR analysis relative to control
[30] = molecular target: Wee1-like protein kinase (Homo sapiens) (UniProt P30291); assay: Inhibition of DNA-tagged human WEE1 assessed as percent of control at 50000 nM by qPCR analysis relative to control

Sequence of Receptor-interacting serine/threonine-protein kinase 1 (Homo sapiens) (Q13546 whole entry): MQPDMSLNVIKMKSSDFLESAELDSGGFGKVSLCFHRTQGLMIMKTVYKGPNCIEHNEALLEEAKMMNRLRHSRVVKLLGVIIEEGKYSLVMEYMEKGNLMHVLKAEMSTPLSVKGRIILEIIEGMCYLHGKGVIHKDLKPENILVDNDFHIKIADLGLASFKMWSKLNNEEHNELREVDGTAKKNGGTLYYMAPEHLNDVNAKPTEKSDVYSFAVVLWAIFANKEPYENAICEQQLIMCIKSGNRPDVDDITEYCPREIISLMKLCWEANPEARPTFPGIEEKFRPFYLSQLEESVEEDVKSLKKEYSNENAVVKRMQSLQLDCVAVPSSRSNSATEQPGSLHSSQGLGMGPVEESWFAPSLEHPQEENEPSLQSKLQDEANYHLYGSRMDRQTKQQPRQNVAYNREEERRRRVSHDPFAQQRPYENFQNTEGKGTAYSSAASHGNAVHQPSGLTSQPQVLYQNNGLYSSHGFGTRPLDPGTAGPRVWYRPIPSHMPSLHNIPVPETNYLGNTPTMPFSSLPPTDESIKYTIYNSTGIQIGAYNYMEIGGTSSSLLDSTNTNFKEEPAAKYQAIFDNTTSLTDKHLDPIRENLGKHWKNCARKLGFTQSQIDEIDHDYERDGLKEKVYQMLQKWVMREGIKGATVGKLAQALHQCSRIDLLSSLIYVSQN
Sequence of Microtubule-associated serine/threonine-protein kinase 1 (Homo sapiens) (Q9Y2H9 whole entry, looked up): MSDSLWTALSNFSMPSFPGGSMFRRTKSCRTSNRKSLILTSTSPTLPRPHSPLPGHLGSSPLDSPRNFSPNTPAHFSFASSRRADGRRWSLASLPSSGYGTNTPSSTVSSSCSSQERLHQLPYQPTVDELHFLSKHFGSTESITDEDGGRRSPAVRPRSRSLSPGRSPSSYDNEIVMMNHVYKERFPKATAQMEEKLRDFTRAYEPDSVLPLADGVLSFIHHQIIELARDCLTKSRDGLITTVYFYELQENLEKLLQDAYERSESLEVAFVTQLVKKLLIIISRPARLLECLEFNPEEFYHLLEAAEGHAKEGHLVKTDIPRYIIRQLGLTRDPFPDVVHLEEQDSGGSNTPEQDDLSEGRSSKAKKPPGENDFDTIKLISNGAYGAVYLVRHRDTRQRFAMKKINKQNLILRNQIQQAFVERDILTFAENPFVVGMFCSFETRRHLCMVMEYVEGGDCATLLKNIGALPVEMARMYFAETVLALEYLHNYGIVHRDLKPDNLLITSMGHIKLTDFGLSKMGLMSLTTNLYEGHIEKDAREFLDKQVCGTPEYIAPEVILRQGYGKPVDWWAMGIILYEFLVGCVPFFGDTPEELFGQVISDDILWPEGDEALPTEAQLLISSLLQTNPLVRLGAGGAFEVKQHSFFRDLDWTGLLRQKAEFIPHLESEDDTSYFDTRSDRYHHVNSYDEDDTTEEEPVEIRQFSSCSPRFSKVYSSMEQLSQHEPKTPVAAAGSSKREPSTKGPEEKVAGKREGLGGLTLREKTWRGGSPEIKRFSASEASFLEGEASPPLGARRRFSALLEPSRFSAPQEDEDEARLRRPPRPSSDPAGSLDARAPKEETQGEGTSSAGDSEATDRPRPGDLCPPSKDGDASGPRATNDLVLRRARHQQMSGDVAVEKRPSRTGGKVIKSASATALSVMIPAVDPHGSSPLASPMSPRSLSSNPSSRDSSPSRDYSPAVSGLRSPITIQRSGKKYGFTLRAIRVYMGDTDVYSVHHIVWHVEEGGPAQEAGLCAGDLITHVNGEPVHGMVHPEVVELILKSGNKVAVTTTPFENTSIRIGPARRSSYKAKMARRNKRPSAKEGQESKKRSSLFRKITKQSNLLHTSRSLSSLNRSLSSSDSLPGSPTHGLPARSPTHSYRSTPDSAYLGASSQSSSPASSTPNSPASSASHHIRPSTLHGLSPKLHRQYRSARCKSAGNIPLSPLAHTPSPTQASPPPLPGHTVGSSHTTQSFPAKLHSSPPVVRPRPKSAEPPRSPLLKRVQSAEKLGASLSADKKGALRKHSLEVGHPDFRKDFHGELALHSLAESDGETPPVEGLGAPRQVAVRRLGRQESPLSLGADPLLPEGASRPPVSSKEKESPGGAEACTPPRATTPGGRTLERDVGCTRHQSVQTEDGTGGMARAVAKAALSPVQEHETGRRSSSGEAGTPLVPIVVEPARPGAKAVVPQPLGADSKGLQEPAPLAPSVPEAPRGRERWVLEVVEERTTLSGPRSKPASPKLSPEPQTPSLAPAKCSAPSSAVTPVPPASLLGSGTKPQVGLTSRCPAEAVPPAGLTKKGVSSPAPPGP
Sequence of Dual serine/threonine and tyrosine protein kinase (Homo sapiens) (Q6XUX3 whole entry): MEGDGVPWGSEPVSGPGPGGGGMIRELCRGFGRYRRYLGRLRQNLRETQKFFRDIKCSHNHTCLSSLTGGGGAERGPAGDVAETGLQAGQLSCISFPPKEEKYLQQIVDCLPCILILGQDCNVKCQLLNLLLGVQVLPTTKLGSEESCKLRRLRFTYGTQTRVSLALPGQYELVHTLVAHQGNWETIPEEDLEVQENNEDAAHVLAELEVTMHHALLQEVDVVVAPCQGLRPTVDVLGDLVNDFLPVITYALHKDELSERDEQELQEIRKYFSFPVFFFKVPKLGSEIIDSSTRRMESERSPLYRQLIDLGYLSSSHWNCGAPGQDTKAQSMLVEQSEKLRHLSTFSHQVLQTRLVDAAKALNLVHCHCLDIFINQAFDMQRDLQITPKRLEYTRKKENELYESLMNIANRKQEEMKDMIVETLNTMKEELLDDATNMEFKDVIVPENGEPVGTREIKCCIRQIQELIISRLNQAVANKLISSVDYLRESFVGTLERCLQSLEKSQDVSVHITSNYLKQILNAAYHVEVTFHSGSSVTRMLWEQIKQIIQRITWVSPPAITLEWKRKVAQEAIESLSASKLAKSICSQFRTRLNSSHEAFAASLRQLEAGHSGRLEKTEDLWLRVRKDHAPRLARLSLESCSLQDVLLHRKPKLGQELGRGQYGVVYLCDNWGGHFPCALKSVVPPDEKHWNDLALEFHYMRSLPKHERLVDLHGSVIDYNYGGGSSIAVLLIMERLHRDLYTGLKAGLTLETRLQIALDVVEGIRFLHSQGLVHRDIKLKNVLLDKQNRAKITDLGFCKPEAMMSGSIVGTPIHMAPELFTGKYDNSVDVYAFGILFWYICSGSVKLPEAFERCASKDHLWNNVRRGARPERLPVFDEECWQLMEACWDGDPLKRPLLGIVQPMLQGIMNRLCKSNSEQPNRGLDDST
Sequence of Mitogen-activated protein kinase 13 (Homo sapiens) (O15264 whole entry): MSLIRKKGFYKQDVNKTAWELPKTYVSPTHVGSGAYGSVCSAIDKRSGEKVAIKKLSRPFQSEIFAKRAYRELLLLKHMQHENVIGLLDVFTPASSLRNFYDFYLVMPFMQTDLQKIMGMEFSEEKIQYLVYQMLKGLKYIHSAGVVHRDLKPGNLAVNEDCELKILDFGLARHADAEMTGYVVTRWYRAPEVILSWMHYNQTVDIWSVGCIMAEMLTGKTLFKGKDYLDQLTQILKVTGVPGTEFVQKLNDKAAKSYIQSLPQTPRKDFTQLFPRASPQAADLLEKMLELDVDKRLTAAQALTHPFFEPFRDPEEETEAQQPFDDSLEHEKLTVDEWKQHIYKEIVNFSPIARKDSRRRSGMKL
Sequence of Serine/threonine-protein kinase PLK2 (Homo sapiens) (Q9NYY3 whole entry, looked up): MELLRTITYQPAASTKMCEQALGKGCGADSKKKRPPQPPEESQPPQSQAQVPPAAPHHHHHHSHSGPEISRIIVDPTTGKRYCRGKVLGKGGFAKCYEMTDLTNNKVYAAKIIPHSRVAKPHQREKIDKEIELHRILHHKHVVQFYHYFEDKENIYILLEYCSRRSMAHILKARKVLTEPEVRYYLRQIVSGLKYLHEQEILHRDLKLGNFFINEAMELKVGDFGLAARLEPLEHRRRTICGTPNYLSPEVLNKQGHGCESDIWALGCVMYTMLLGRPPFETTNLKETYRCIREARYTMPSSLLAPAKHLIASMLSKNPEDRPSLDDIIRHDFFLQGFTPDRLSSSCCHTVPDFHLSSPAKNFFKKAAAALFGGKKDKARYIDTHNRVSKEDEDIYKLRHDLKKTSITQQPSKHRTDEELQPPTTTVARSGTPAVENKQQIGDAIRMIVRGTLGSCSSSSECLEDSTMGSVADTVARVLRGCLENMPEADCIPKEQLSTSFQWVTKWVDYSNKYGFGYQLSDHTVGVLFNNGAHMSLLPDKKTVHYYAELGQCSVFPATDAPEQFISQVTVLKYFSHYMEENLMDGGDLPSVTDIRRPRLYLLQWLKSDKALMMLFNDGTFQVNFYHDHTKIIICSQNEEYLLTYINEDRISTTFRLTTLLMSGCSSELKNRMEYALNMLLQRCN
Sequence of G protein-coupled receptor kinase 4 (Homo sapiens) (P32298 whole entry, looked up): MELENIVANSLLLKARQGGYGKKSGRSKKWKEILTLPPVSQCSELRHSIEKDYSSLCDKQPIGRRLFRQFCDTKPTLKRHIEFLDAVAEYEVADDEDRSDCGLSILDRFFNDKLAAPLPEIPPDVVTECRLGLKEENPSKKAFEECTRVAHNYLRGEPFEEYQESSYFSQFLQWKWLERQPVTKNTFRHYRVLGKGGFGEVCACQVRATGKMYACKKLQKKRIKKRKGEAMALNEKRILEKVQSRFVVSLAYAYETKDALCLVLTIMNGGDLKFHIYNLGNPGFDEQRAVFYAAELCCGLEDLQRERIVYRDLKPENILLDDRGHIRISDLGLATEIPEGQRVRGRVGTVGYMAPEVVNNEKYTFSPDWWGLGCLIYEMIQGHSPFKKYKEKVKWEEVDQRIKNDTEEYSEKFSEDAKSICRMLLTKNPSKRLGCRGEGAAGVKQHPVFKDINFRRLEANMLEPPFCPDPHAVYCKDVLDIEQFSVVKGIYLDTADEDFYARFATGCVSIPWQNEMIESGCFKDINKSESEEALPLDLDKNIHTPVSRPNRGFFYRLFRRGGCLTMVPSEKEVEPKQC

Q: Which Activity [1] does the source give for `CN1C(=O)/C(=C2/C(=O)Nc3ccccc32)c2ccccc21` here?
A: 100%

Q: What about the Activity [2] of the same compound?
A: 83%

Q: And the Activity [3]?
A: 92%

Q: And the Activity [4]?
A: 71%

Q: And the Activity [5]?
A: 100%

Q: What about the Activity [6] of the same compound?
A: 100%

Q: And the Activity [7]?
A: 86%

Q: And the Activity [8]?
A: 95%

Q: What about the Activity [9] of the same compound?
A: 100%

Q: What about the Activity [10] of the same compound?
A: 86%

Q: What about the Activity [11] of the same compound?
A: 85%

Q: And the Activity [12]?
A: 89%

Q: And the Activity [13]?
A: 95%

Q: And the Activity [14]?
A: 100%

Q: What about the Activity [15] of the same compound?
A: 100%

Q: And the Activity [16]?
A: 80%

Q: What about the Activity [17] of the same compound?
A: 92%

Q: And the Activity [18]?
A: 85%

Q: And the Activity [19]?
A: 100%

Q: What about the Activity [20] of the same compound?
A: 100%

Q: What about the Activity [21] of the same compound?
A: 84%

Q: What about the Activity [22] of the same compound?
A: 94%

Q: And the Activity [23]?
A: 99%

Q: What about the Activity [24] of the same compound?
A: 93%

Q: What about the Activity [25] of the same compound?
A: 91%

Q: And the Activity [26]?
A: 94%

Q: And the Activity [27]?
A: 40%

Q: And the Activity [28]?
A: 92%

Q: What about the Activity [29] of the same compound?
A: 100%

Q: What about the Activity [30] of the same compound?
A: 91%
